Measurements taken from patent US12225917B2 (priority 2017, dated 2025).
“And” between values parts separate entries of the source, which are not always exact repeats. Equal entries are not always repeated. Where two headings read alike, the source gives them in different places.

Experiments:
[1] = system: Eimeria species; parameters: species or system commercial meat chickens; conditions: in vivo
[2] = system: Clostridium Perfringens (type A strain EHE-NE36); conditions: for median lesion scores: relative to nil-treatment; for small intestinal lesion scores: relative to nil treatment groups
[3] = in vivo
[4] = Example 3: intestinal health scores based on Tierlynck et al. 2011 (dysbacteriosis, gross gut pathology); type: in vivo, commercial meat chickens; conditions: for Ballooning (total gut) score / Contents lower intestine score / Contents upper intestine score / Hyperaemia lower intestine score / Hyperaemia upper intestine score / Tonus lower intestine score / Tonus upper intestine score / Total Intestine health score (maximum 10) / Translucency lower intestine score / Translucency upper intestine score / Undigested particles in rectum score: reference feed: Salino, or Sal Zn Bac
Description: […] General gut quality (looking for enteritis) was also visually assessed at that point.
This is a scoring system aimed at quantifying the level of dysbacteriosis present in a group of birds, attributing scores for certain grossly visible abnormalities. Higher total scores (maximum 10) reflect a higher level of dysbacteriosis, although this may be compromised if coccidiosis is present. For our purposes, the intestinal scores simply reflect gross gut pathology.

[5] = General safety in broilers reared to market weight by histology (Example 8); type: in vivo, broiler chickens; conditions: histology D42
Description: This study evaluates the safety of IRP001 chloride in broilers through examination of histology.
The objective of this study was to test the general safety of IRP001 chloride in broilers reared to market weight by examination of histology.
The experiment consisted of the following treatments (1 pen per treatment, Table 54).
Birds were kept in a pen having an area of 4×10=40 ft^2, with clean wood shavings as bedding with a thickness of approximately 4 inches. The pen had 5 feet high side walls with a bottom 1 ½ feet being of solid wood to prevent bird migration.
The temperature of the building was monitored. Environmental conditions during the trial (temperature) were appropriate (optimum) to the age of the animals. Illumination was provided by fluorescent bulbs placed above the pens. The diets were provided ad libitum in one tube-type feeder per pen. From D0 until D7, feed was also supplied on a tray placed on the litter of each pen. Water was provided ad libitum from one Plasson drinker per pen.
Standard floor pen management practices were used throughout the experiment. Animals and housing facilities were inspected twice daily, observing and recording the general health status, constant feed and water supply as well as temperature, removing all dead birds, and recognizing unexpected events. Birds found dead during the study were noted on the Daily Mortality Record, and were not replaced. Pen number, the date of mortality, sex, weight, and diagnosis were recorded.
Day of hatch male Cobb chicks were obtained and ten male broiler chicks were placed in each pen. Accountabilities of all test animals and any extra birds were recorded on animal disposition form. The birds were sexed at the hatchery. The breeder flock history and vaccination record at the hatchery were recorded. Bird weights by pen were recorded on D0 and 42.
All weights were by pen. Treatment Starter feed was fed from D0 to 21. On D21, non-consumed Starter was weighed by pen and discarded. Grower feed was issued and fed until D35. On D35, non-consumed Grower was weighed by pen and discarded. Finisher feed was fed until D42. On D42, non-consumed Finisher was weighed by pen and discarded.
On the day of study completion (D42), five birds from each pen were humanly euthanized and upper, mid and lower gut sections plus liver lobe were collected and stored in neutral buffered formalin. Theses samples were shipped for analysis.

[6] = system: Clostridium Perfringens; conditions: Necrotic Enteritis strain of C. perfringens
[7] = Feed palatability, feed and water consumption and bird productivity study (Example 2): feed intake, water intake, bodyweight, FCR; type: in vivo, broiler chickens
Description: A follow-up study to determine the feed palatability, feed and water consumption and bird productivity following incorporation of a single formulation of IRP001 hemisulfate salt (unmasked) when offered to broiler chickens in-feed or in-water. The study explores the optimal treatment regime in terms of treatment start date.
Phase 1: On receipt, two hundred and seventy (270) day-old commercial broiler chickens were allocated sequentially as they are received into sixteen (16) individual floor pens, each of 16 or 17 birds, on Day 0.
Phase 2: On receipt, the ninety (90) day-old commercial broiler chickens were allocated sequentially as they are received into four (4) individual floor pens, each of 22 or 23 birds, on Day 22.
Feed intake, water intake, weight gain and mortality were used as outcome parameters.
Individual daily feed intake and individual daily water intake data by pen and then by treatment group were calculated for Phases 1 and 2 (and for the entire trial for the birds in Group/Pen 2, 15 and 16 that continue through both Phases) using figures for total feed and water provided each day to each pen divided by the number of birds in each pen. Where errors in weighing, feeding/watering or recording (or other unexplained losses of feed and water) had occurred means were adjusted by using the mean value for the same pen on the 1-2 days either side of the apparent error. Similarly, group mean bodyweights were calculated for Phase 1 using total weight/total no. birds for Day 0 and individual weights from Days 7, 14, 21, 28, 35 and 42. Total (individual) feed consumed was calculated per treatment and feed conversion ratios per treatment calculated using the expression: total (individual) feed/total (individual) weight gain. […]

[8] = NE challenge, IVP 0.1 g/L In-water, Groups 7, 8
[9] = NE challenge, IVP 0.2 g/kg In-feed, Group 11
[10] = NE challenge, IVP 1.0 g/L In-water, Groups 9, 10
[11] = NE challenge, IVP 2.0 g/kg In-feed, Group 12
[12] = Necrotic Enteritis, IVP water 1.0 g/L, line 'Mean' of Groups 9 and 10
[13] = Necrotic Enteritis, IVP water 1.0 g/L, per isolator, Groups 9 and 10
[14] = Nil Challenge, IVP water 1.0 g/L, line 'Mean' of Groups 3 and 4
[15] = Nil Challenge, IVP water 1.0 g/L, per isolator, Groups 3 and 4
[16] = Nil challenge, IVP 1.0 g/L In-water, Groups 3, 4
[17] = broilers in a production environment

COc1ccc2cc3[n+](cc2c1OC)CCc1cc2c(cc1-3)OCO2 [IRP001 chloride, berberine chloride]
coccidiosis lesion scores in duodenum, jejunum and total gut [1]: highest lesion scores | oocyst counts in faeces [1]: numerically lower than the controls | total gut coccidiosis lesion scores [1]: significantly reduced total gut lesion scores | Median Duodenal Lesion Score (0 absent to 4 severe) [2, 8]: 4 | Median Ilial Lesion Score (0 absent to 4 severe) [2, 8]: 4 | Median Jejunal Lesion Score (0 absent to 4 severe) [2, 8]: 4 | Median Duodenal Lesion Score (0 absent to 4 severe) [2, 9]: 4 | Median Ilial Lesion Score (0 absent to 4 severe) [2, 9]: 4 | Median Jejunal Lesion Score (0 absent to 4 severe) [2, 9]: 4 | Median Duodenal Lesion Score (0 absent to 4 severe) [2, 10]: 1 | Median Ilial Lesion Score (0 absent to 4 severe) [2, 10]: 1 | Median Jejunal Lesion Score (0 absent to 4 severe) [2, 10]: 1 | Median Duodenal Lesion Score (0 absent to 4 severe) [2, 11]: 1 | Median Ilial Lesion Score (0 absent to 4 severe) [2, 11]: 1 | Median Jejunal Lesion Score (0 absent to 4 severe) [2, 11]: 1 | Mortalities prior to autopsy ([2]; Necrotic Enteritis, IVP feed 0.2 g/kg, Group 11): 9 | Mortalities prior to autopsy ([2]; Necrotic Enteritis, IVP feed 2 g/kg, Group 12): 2 | Mortalities prior to autopsy ([2]; Necrotic Enteritis, IVP water 0.1 g/L, per isolator, Groups 7 and 8, listed as IVP): 10 | Mortalities prior to autopsy [2, 12]: 0 | Mortality % [2, 12]: 0% | Mortalities prior to autopsy [2, 13]: 0 | Mortality % [2, 13]: 0% | Mortalities prior to autopsy [2, 14]: 0 | Mortality % [2, 14]: 0% | Mortalities prior to autopsy [2, 15]: 0 | Mortality % [2, 15]: 0% | Median Duodenal Lesion Score (0 absent to 4 severe) [2, 16]: 0 | Median Ilial Lesion Score (0 absent to 4 severe) [2, 16]: 0 | Median Jejunal Lesion Score (0 absent to 4 severe) [2, 16]: 0 | Feed per bird over period 0-14 days [3]: 485^B g/bird and 513^A g/bird and 512^A g/bird | Feed per bird over period 0-21 days [3]: 1186^B g/bird and 1227^AB g/bird and 1240^AB g/bird | Feed per bird over period 0-28 days [3]: 1957 g/bird and 2037 g/bird and 2049 g/bird | Feed per bird over period 0-42 days [3]: 4121 g/bird and 4247 g/bird and 4305 g/bird | Mean Weight Gain over period 0-7 days [3]: 113 gm and 121 gm and 119 gm | Mean Weight Gain over period 8-14 days [3]: 320^C gm and 334^A gm and 343^A gm | Mean Weight Gain over period 15-21 days [3]: 491^B gm and 517^A gm and 528^A gm | Mean Weight Gain over period 22-28 days [3]: 593 gm and 618 gm and 600 gm | Mean Weight Gain over period 29-42 days [3]: 1324 gm and 1341 gm and 1436 gm | Mean live weight at 0 days [3]: 41 gm | Mean live weight at 7 days [3]: 160 gm | Mean live weight at 21 days [3]: 923^C gm | growth rates throughout the experiment [3]: statistically similar to the control group | live weight to the end of the experiment (day 42) [3]: remained significantly lighter than all other groups | mean live weight at 14 days [3]: significantly lower weights than the negative control | translucency score in the upper intestine and undigested feed particles in the rectum ([4]; 21 days, higher two levels 0.3 and 0.1 g/kg, compared with controls and 0.03 g/kg): reduced translucency score in the upper intestine and the presence of undigested feed particles in the rectum | total intestinal health scores compared with the controls ([4]; 28 days, 0.3 g/kg in feed, P=0.06): approached significance | gastrointestinal tract (GIT) histologic lesions [5, 17]: within normal limits | liver histologic lesions [5, 17]: within normal limits | Cumulative Pathology and Enteritis scores ([5]; versus control Treatment 1 Nil group): equal or lower than the control

CC[C@@H](C(=O)[C@@H](C)[C@@H](O)[C@H](C)[C@@H]1O[C@@H]([C@@H](CC)C(=O)O)CC[C@@H]1C)[C@H]1O[C@]2(C=C[C@@H](O)[C@]3(CC[C@@](C)([C@H]4CC[C@](O)(CC)[C@H](C)O4)O3)O2)[C@H](C)C[C@@H]1C [salinomycin, Salinomycin]
Faecal oocyst count, Log10 Mean [1]: 4.72^B Log10 (Oocyst/g faeces) | Faecal oocyst count, Mean [1]: 72,046 Oocyst/g faeces | Feed per bird over period 0-14 days [3]: 497^AB g/bird | Feed per bird over period 0-21 days [3]: 1193^B g/bird | Feed per bird over period 0-28 days [3]: 2074 g/bird | Feed per bird over period 0-42 days [3]: 4298 g/bird | Mean Weight Gain over period 0-7 days [3]: 116 gm | Mean Weight Gain over period 8-14 days [3]: 330^BC gm | Mean Weight Gain over period 15-21 days [3]: 517^A gm | Mean Weight Gain over period 22-28 days [3]: 645 gm | Mean Weight Gain over period 29-42 days [3]: 1384 gm | Mean live weight at 0 days [3]: 41 gm | growth rates throughout the experiment [3]: statistically similar to the control group | mean live weight at 14 days [3]: 446^AB gm | Ballooning (total gut) score ([4]; Age 21 days): 0.10 | Contents lower intestine score ([4]; Age 21 days): 0.45 | Contents upper intestine score ([4]; Age 21 days): 0.65 | Hyperaemia lower intestine score ([4]; Age 21 days): 0.00 | Hyperaemia upper intestine score ([4]; Age 21 days): 0.15 | Tonus lower intestine score ([4]; Age 21 days): 0.50 | Tonus upper intestine score ([4]; Age 21 days): 0.50 | Total Intestine health score (maximum 10) ([4]; Age 21 days): 3.55 | Translucency lower intestine score ([4]; Age 21 days): 0.85 | Translucency upper intestine score ([4]; Age 21 days): 0.20^B | Undigested particles in rectum score ([4]; Age 21 days): 0.15^B | Ballooning (total gut) score ([4]; Age 28 days): 0.80 | Contents lower intestine score ([4]; Age 28 days): 0.00 | Contents upper intestine score ([4]; Age 28 days): 1.00 | Hyperaemia lower intestine score ([4]; Age 28 days): 0.20 | Hyperaemia upper intestine score ([4]; Age 28 days): 0.80 | Tonus lower intestine score ([4]; Age 28 days): 0.60 | Tonus upper intestine score ([4]; Age 28 days): 0.80 | Total Intestine health score (maximum 10) ([4]; Age 28 days): 5.20 | Translucency lower intestine score ([4]; Age 28 days): 0.20 | Translucency upper intestine score ([4]; Age 28 days): 0.40 | Undigested particles in rectum score ([4]; Age 28 days): 0.40

berberine hemisulfate [IRP001 sulfate]
median lesion scores ([2]; NE challenged broilers, 0.1 g/L in-water): no reduction in median lesion scores | Mortalities prior to autopsy ([2]; NE challenged broilers, 0.1 g/L in-water, versus nil-treatment): not significantly different | median lesion scores ([2]; NE challenged broilers, 0.2 g/kg in-feed): no reduction in median lesion scores | Mortalities prior to autopsy ([2]; NE challenged broilers, 0.2 g/kg in-feed, versus nil-treatment): not significantly different | small intestinal lesion scores ([2]; NE challenged broilers, 1.0 g/L in-water): substantial reduction in small intestinal lesion scores | Mortalities prior to autopsy ([2]; NE challenged broilers, 1.0 g/L in-water, relative to nil-treatment and low-dose groups): significant reduction in mortalities | small intestinal lesion scores ([2]; NE challenged broilers, 2.0 g/kg in-feed): substantial reduction in small intestinal lesion scores | Mortalities prior to autopsy ([2]; NE challenged broilers, 2.0 g/kg in-feed, relative to nil-treatment and low-dose groups): significant reduction in mortalities | inhibition of growth at 62.5 μg/ml ([6]; 62.5 μg/ml): partial inhibition of growth | MIC ([6]; test agent Berberine sulfate, purity 98.0%): 125 µg/mL | bodyweight ([7]; Phase 1+2, Pen 2 untreated vs 15/16 treated in-water Day 6-42, pair-wise comparison p<0.05): no significant difference | bodyweight ([7]; Phase 1, unmasked treatment via drinking water (1.0 g per L) over varying periods): did not appear to affect | bodyweight ([7]; Phase 2, treatment in-feed (2.0 g per kg of feed)): did not appear to affect
